One may read the CC50 as the concentration at which the toxic effect on the cells reaches its halfway point. A lower CC50 goes with harm at low concentration.

SMILES strings stand for the structures.

A short description of data set [1]: Cytotoxicity against HEK293T cells after 72 hrs by CCK8 assay. Format: cell-based, HEK-293T. The following applies: human. (Tetrazolium dyes change colour on reduction, which living cells bring about.)
A short description of data set [2]: Cytotoxicity against human HepG2 cells after 72 hrs by CCK8 assay. The data set is classed as cell-based.

Take `C[C@@H]1[C@H](O)[C@@H](C)/C=C/C=C/C=C/C=C/C=C/C=C/C=C/[C@H](O[C@@H]2O[C@H](C)[C@@H](O)[C@H](N)[C@@H]2O)C[C@@H]2O[C@](O)(C[C@@H](O)C[C@@H](O)[C@H](O)CC[C@@H](O)C[C@@H](O)CC(=O)O[C@H]1C)C[C@H](O)[C@H]2C(=O)O` [AMPHOTERICIN B]: the CC50 at 72 h in data set [1] was determined as 27.5 µM; in data set [2], 37.8 µM.
